# Measured values published in ChEMBL document CHEMBL1201862, “PubChem BioAssay data set” (2004).
#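 Interpolation was linear, between the two tested concentrations surrounding the appropriate level; five concentrations were tested over 48 hours in 96-well plates. Abbreviation: GI50, concentration required for 50% inhibition of growth.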 Active and inactive are the calls of the source. No stated cut-off is given here; in the data, active = GI50 up to about 1.1 µM and inactive = higher.
# Experiments:
# Experiment in all cases: NCI anticancer screen, dose series, 48 h
# RXF 631 = test system: RXF 631
# SF-539 = test system: SF-539
# XF498 = test system: XF498
# OVCAR-3 = test system: OVCAR-3
# HCT-15 = test system: HCT-15
# M19-MEL = test system: M19-MEL
# M14 = test system: M14
# SF-295 = test system: SF-295
# UACC-257 = test system: UACC-257
# 786-0 = test system: 786-0
# COLO 205 = test system: COLO 205
# LOX IMVI = test system: LOX IMVI
# A549 = test system: A549
# UACC-62 = test system: UACC-62
# K562 = test system: K562
# SN12C = test system: SN12C
# TK-10 = test system: TK-10
# U-251 = test system: U-251
# SNB-19 = test system: SNB-19
# OVCAR-5 = test system: OVCAR-5
# HT-29 = test system: HT-29
# HCT-116 = test system: HCT-116
# NCI-H460 = test system: NCI-H460
# CAKI-1 = test system: CAKI-1
# DMS-273 = test system: DMS-273
# HOP-92 = test system: HOP-92
# LXFL 529 = test system: LXFL 529
# HCC 2998 = test system: HCC 2998
# RPMI-8226 = test system: RPMI-8226
# SK-OV-3 = test system: SK-OV-3
# NCI-H522 = test system: NCI-H522
# MOLT-4 = test system: MOLT-4
# CCRF-CEM = test system: CCRF-CEM
# DMS-114 = test system: DMS-114
# KM-20L2 = test system: KM-20L2
# DLD-1 = test system: DLD-1
# OVCAR-4 = test system: OVCAR-4
# A498 = test system: A498
# ACHN = test system: ACHN
# Malme-3M = test system: Malme-3M
# KM12 = test system: KM12
# UO-31 = test system: UO-31
# NCI-H23 = test system: NCI-H23
# EKVX = test system: EKVX
# SF-268 = test system: SF-268
# SK-MEL-2 = test system: SK-MEL-2
# NCI-H226 = test system: NCI-H226
# SK-MEL-5 = test system: SK-MEL-5
# HL-60 = test system: HL-60
# SW-620 = test system: SW-620
# SNB-78 = test system: SNB-78
# IGROV-1 = test system: IGROV-1
# OVCAR-8 = test system: OVCAR-8
structure (smiles),measurement,setting,value
CCCCC(C(=O)C(=O)Nc1ccccc1CC)C(=O)C(C)C (stereo not drawn),GI50,RXF 631,> 100 µM (inactive)
same,GI50,SF-539,> 100 µM (inactive)
same,GI50,XF498,> 100 µM (inactive)
same,GI50,OVCAR-3,> 100 µM (inactive)
same,GI50,HCT-15,> 100 µM
same,GI50,M19-MEL,> 100 µM (inactive)
same,GI50,M14,> 100 µM (inactive)
same,GI50,SF-295,> 100 µM (inactive)
same,GI50,UACC-257,> 100 µM (inactive)
same,GI50,786-0,> 100 µM (inactive)
same,GI50,COLO 205,> 100 µM (inactive)
same,GI50,LOX IMVI,> 100 µM (inactive)
same,GI50,A549,> 100 µM (inactive)
same,GI50,UACC-62,> 100 µM (inactive)
same,GI50,K562,> 100 µM (inactive)
same,GI50,SN12C,> 100 µM (inactive)
same,GI50,TK-10,> 100 µM (inactive)
same,GI50,U-251,> 100 µM (inactive)
same,GI50,SNB-19,> 100 µM (inactive)
same,GI50,OVCAR-5,> 100 µM (inactive)
same,GI50,HT-29,> 100 µM (inactive)
same,GI50,HCT-116,> 100 µM (inactive)
same,GI50,NCI-H460,> 100 µM (inactive)
same,GI50,CAKI-1,> 100 µM (inactive)
same,GI50,DMS-273,> 100 µM (inactive)
same,GI50,HOP-92,> 100 µM (inactive)
same,GI50,LXFL 529,> 100 µM (inactive)
same,GI50,HCC 2998,> 100 µM (inactive)
same,GI50,RPMI-8226,> 100 µM (inactive)
same,GI50,SK-OV-3,> 100 µM (inactive)
same,GI50,NCI-H522,> 100 µM (inactive)
same,GI50,MOLT-4,> 100 µM (inactive)
same,GI50,CCRF-CEM,> 100 µM (inactive)
same,GI50,DMS-114,> 100 µM (inactive)
same,GI50,KM-20L2,> 100 µM (inactive)
same,GI50,DLD-1,> 100 µM (inactive)
same,GI50,OVCAR-4,> 100 µM (inactive)
same,GI50,A498,> 100 µM (inactive)
same,GI50,ACHN,> 100 µM (inactive)
same,GI50,Malme-3M,> 100 µM (inactive)
same,GI50,KM12,> 100 µM (inactive)
same,GI50,UO-31,> 100 µM (inactive)
same,GI50,NCI-H23,> 100 µM (inactive)
same,GI50,EKVX,> 100 µM (inactive)
same,GI50,SF-268,> 100 µM (inactive)
same,GI50,SK-MEL-2,> 100 µM (inactive)
same,GI50,NCI-H226,> 100 µM (inactive)
same,GI50,SK-MEL-5,> 100 µM (inactive)
same,GI50,HL-60,> 100 µM (inactive)
same,GI50,SW-620,> 100 µM (inactive)
same,GI50,SNB-78,> 100 µM (inactive)
same,GI50,IGROV-1,> 100 µM (inactive)
same,GI50,OVCAR-8,> 100 µM (inactive)
